The record followed here is paper PMC5437240, “Computational and structural evidence for neurotransmitter-mediated modulation of the oligomeric states of human insulin in storage granules” (The Journal of Biological Chemistry, 2017).

This assay concerns the target T1, porcine hexameric Zn2+-insulin (Sus scrofa, UniProt P01315).
T1 construct: gene INS; mature two-chain disulfide-linked insulin, cut from (pre)proinsulin; Zn2+ hexamer (two Zn per hexamer), T6 start state
Briefly: UV-visible 4H3N chromophore titration, Hill fit. As to conditions: read-out: Kd ± S.D. The format is binding. An excerpt: UV-visible 4H3N chromophore titration, Hill fit on porcine hexameric Zn2+-insulin

T1 sequence (P01315 25-54): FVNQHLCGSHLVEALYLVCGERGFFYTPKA
T1 sequence (P01315 88-108): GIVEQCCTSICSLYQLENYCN

As a reminder, the Kd is a measure of binding affinity in units of concentration. In the case of `NCCc1c[nH]c2ccc(O)cc12` [serotonin], the Kd worked out at 3340 ± 520 µM.

With `Oc1ccccc1` [phenol], the Kd came to 860 ± 130 µM.
